In PubChem BioAssay AID330 (DTP/NCI, 2004):
“And” between values parts separate entries of the source, which are not always exact repeats. Equal values may be shown once. Toxic doses and inconclusive results are not listed.

Test system: P388 leukemia ip, CD2F1 mice, survival T/C
Assay: NCI In Vivo Anticancer Drug Screen. Data for tumor model P388 Leukemia (intraperitoneal) in CD2F1 (CDF1) mice
Conditions: endpoint: median survival time, higher = longer survival
How it was run: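 Mice carrying the transplanted tumor received test compound or vehicle. Survival was recorded in each group, and the value is the treated-group measurement divided by that of the vehicle-treated control group.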

[1] = dose: 50.0 mg/kg/injection, schedule: Q01DX005 (ip), vehicle: Klucel (hydroxypropylcellulose) (HPC)
[2] = dose: 12.5 mg/kg/injection, schedule: Q01DX009 (ip), vehicle: saline with Tween-80
[3] = dose: 50.0 mg/kg/injection, schedule: Q01DX009 (ip), vehicle: saline with Tween-80
[4] = dose: 6.25 mg/kg/injection, schedule: Q01DX009 (ip), vehicle: saline with Tween-80

`NC(=O)N=C(N)N` was tested, and the T/C [1] was 106 % of control, the T/C (dose: 100.0 mg/kg/injection, schedule: Q01DX005 (ip), vehicle: Klucel (hydroxypropylcellulose) (HPC)) was 98 % of control and the T/C (dose: 200.0 mg/kg/injection, schedule: Q01DX005 (ip), vehicle: Klucel (hydroxypropylcellulose) (HPC)) was 101 % of control and 106 % of control.
For `COc1ccc2cc3[nH]c(=O)cc(O)c3cc2c1OC`, the T/C (dose: 12.5 mg/kg/injection, schedule: Q01DX009 (ip), vehicle: other) was 96 % of control, the T/C (dose: 25.0 mg/kg/injection, schedule: Q01DX009 (ip), vehicle: other) was 106 % of control and the T/C (dose: 50.0 mg/kg/injection, schedule: Q01DX009 (ip), vehicle: other) was 101 % of control. The T/C (dose: 100.0 mg/kg/injection, schedule: Q01DX009 (ip), vehicle: other) was 89 % of control and the T/C (dose: 200.0 mg/kg/injection, schedule: Q01DX009 (ip), vehicle: other) was 89 % of control.
`S=C(N/N=C1\CSCc2ccccc21)Nc1cc(Cl)ccc1Cl` was tested, and the T/C [2] was 87 % of control, the T/C (dose: 25.0 mg/kg/injection, schedule: Q01DX009 (ip), vehicle: saline with Tween-80) was 90 % of control and the T/C [3] was 100 % of control.
With `O=NN(CCCl)C(=O)Nc1c[nH]c(=O)[nH]c1=O` the T/C (dose: 0.01 mg/kg/injection, schedule: Q04DX003 (ip), vehicle: saline with Tween-80) was 95 % of control, the T/C (dose: 0.02 mg/kg/injection, schedule: Q04DX003 (ip), vehicle: saline with Tween-80) was 100 % of control and the T/C (dose: 0.04 mg/kg/injection, schedule: Q04DX003 (ip), vehicle: saline with Tween-80) was 100 % of control. The T/C (dose: 0.5 mg/kg/injection, schedule: Q04DX003 (ip), vehicle: saline) was 150 % of control, the T/C (dose: 1.0 mg/kg/injection, schedule: Q04DX003 (ip), vehicle: saline) was 159 % of control and the T/C (dose: 2.0 mg/kg/injection, schedule: Q04DX003 (ip), vehicle: saline) was 172 % of control. For the same molecule, the T/C (dose: 3.0 mg/kg/injection, schedule: Q04DX003 (ip), vehicle: saline with Tween-80) was 195 % of control, the T/C (dose: 3.13 mg/kg/injection, schedule: Q01DX009 (ip), vehicle: saline with Tween-80) was 227 % of control and the T/C (dose: 6.0 mg/kg/injection, schedule: Q04DX003 (ip), vehicle: saline with Tween-80) was 213 % of control. For the same molecule, the T/C [4] was 227 % of control, the T/C (dose: 8.0 mg/kg/injection, schedule: Q04DX003 (ip), vehicle: saline with Tween-80) was 191 % of control and the T/C (dose: 12.0 mg/kg/injection, schedule: Q04DX003 (ip), vehicle: saline with Tween-80) was 166 % of control. For the same molecule, the T/C [2] was 109 % of control, the T/C (dose: 12.5 mg/kg/injection, schedule: Q04DX003 (ip), vehicle: saline with Tween-80) was 219 % of control and the T/C (dose: 18.0 mg/kg/injection, schedule: Q04DX003 (ip), vehicle: saline with Tween-80) was 191 % of control. For the same molecule, the T/C (dose: 30.0 mg/kg/injection, schedule: Q01DX009 (ip), vehicle: saline with Tween-80) was 100 % of control.
In the case of `COc1ccc([N+](=O)[O-])cc1C[S+](C)C`, the T/C (dose: 6.25 mg/kg/injection, schedule: Q01DX009 (ip), vehicle: Klucel (hydroxypropylcellulose) (HPC)) is reported as 108 % of control, the T/C (dose: 12.5 mg/kg/injection, schedule: Q01DX009 (ip), vehicle: Klucel (hydroxypropylcellulose) (HPC)) is reported as 107 % of control and the T/C (dose: 25.0 mg/kg/injection, schedule: Q01DX009 (ip), vehicle: Klucel (hydroxypropylcellulose) (HPC)) is reported as 112 % of control.
`COc1ccc(/C(C#N)=C2\OC(=O)c3ccccc32)cc1OC` was tested, and the T/C [4] was 97 % of control, the T/C [2] was 89 % of control and the T/C [3] was 90 % of control. The T/C (dose: 400.0 mg/kg/injection, schedule: Q01DX009 (ip), vehicle: saline with Tween-80) was 90 % of control.
With `Cc1cc(N/N=C/c2ccccn2)c2cc3c(cc2n1)OCO3` the T/C (dose: 12.5 mg/kg/injection, schedule: Q01DX005 (ip), vehicle: Klucel (hydroxypropylcellulose) (HPC)) was 103 % of control, the T/C (dose: 25.0 mg/kg/injection, schedule: Q01DX005 (ip), vehicle: Klucel (hydroxypropylcellulose) (HPC)) was 104 % of control and the T/C [1] was 101 % of control and 104 % of control.
`CCN(CC)CCn1nc2n(c(=O)c1=O)CC(=O)N(C)c1ccc(Cl)cc1-2` was tested, and the T/C (dose: 50.0 mg/kg/injection, schedule: Q01DX009 (ip), vehicle: saline) was 105 % of control, the T/C (dose: 100.0 mg/kg/injection, schedule: Q01DX009 (ip), vehicle: saline) was 105 % of control and the T/C (dose: 200.0 mg/kg/injection, schedule: Q01DX009 (ip), vehicle: saline) was 99 % of control.
